Starred links: 1 amine or outer side, 2 acyl side, 3 side chain; linkers in the order of their positions; H or OH if unused. Positions of bridges follow the written chain, without caps; N, C: chain ends. Non-standard residues stand in square brackets, D forms with d. Residues, ends and D or L forms follow the SMILES beside them. ξ: configuration not given here. *: point of attachment. ξAbu(βξ-NH2) = CC(N[*:3])C(N[*:1])C(=O)[*:2]; X7 = CC(NC(=O)C1CCNCC1)C(N[*:1])C(=O)[*:2]; Pentadecanoyl = CCCCCCCCCCCCCCC(=O)*; ξAsp(βξ-Me) = CC(C(=O)O)C(N)C(=O)O; X12 = O=C(c1ccc(NN[*:1])cc1)[*:2]; ξAbu(3ξ-NH2) = CC(N)C(N)C(=O)O; Lauroyl = CCCCCCCCCCCC(=O)*; Pip = O=C(O)[CH]1CCCCN1
Test system: Staphylococcus aureus (MSSA)
Settings: 24 h
Experimental: (“Approved Standard M7-A3”).
The antimicrobial lipopeptide derivatives described herein were tested for antimicrobial activity against Gram-positive bacteria as follows. The minimum inhibitory concentrations (MIC) of the antimicrobial lipopeptide derivatives of the invention were determined using NCCLS guidelines M7-A6 (2003) with a slight modification in that doubling serial dilutions were used to dilute the test compounds. The broth phase microdilution method was used. Isolated colonies of Staphylococcus aureus (MSSA) from an 18-24 hour blood agar plate cultures were used to inoculate cation adjusted Mueller-Hinton broth (CAMHB) supplemented with 0.625 mM calcium. […] A negative control containing media alone and a positive growth control containing bacteria with media alone were also included. MICs were determined after incubating the plates at about 37° C. for 24 hours. […] In Tables 1 to 16, R is the core cyclic peptide of amphomycin or aspartocin, which can be in the form of a β-isomer, an anhydro, a dianhydro, or any combination thereof. […] Furthermore, a person of skill in the art will appreciate that all the pounds, or groups of compounds, derived from the various combinations of and substituents shown in Tables 1 to 16, are disclosed by the present the same extent as if each compound or group of compounds was set forth individually.

MIC	Structure (SMILES)
1 µg/mL	CCCCCCCCCCCCCCC(=O)NC(CC(=O)O)C(=O)NC1C(=O)N2CCCCC2C(=O)NC(C(C)C(=O)O)C(=O)NC(CC(=O)O)C(=O)NCC(=O)NC(CC(=O)O)C(=O)NCC(=O)NC(C(C)NC(=O)[C@@H](N)CCCCN)C(=O)NC(C(C)C)C(=O)N2CCCC2C(=O)NC1C (single isomer, unassigned) [Compound 129, C15-Amphomycin-9-Lys]
16 µg/mL	CCCCCCCCCCCCCCC(=O)NC(CC(=O)O)C(=O)NC1C(=O)N2CCCCC2C(=O)NC(C(C)C(=O)O)C(=O)NC(CC(=O)O)C(=O)NCC(=O)NC(CC(=O)O)C(=O)NCC(=O)NC(C(C)NC(=O)[C@@H](N)CCCCN)C(=O)NC(C(C)C)C(=O)N2CCCC2C(=O)NC1C (single isomer, unassigned) [Compound 172, C15-Amphomycin-9-Lys]
16 to 32 µg/mL	CCCCCCCCCCCCCCC(=O)NC(CC(=O)O)C(=O)NC1C(=O)N2CCCCC2C(=O)NC(C(C)C(=O)O)C(=O)NC(CC(=O)O)C(=O)NCC(=O)NC(CC(=O)O)C(=O)NCC(=O)NC(C(C)NC(=O)[C@@H](N)CC(C)C)C(=O)NC(C(C)C)C(=O)N2CCCC2C(=O)NC1C (stereo partly shown) [Compound 5, C15-Amphomycin-9-Leu]
32 to 64 µg/mL	CCCCCCCCCC(=O)NC(CC(=O)O)C(=O)NC1C(=O)N2CCCCC2C(=O)NC(C(C)C(=O)O)C(=O)NC(CC(=O)O)C(=O)NCC(=O)NC(CC(=O)O)C(=O)NCC(=O)NC(C(C)N)C(=O)NC(C(C)C)C(=O)N2CCCC2C(=O)NC1C (stereo not shown) [Compound 6, C10-Amphomycin]
32 to 64 µg/mL	CCCCCCCCCCC(=O)NC(CC(=O)O)C(=O)NC1C(=O)N2CCCCC2C(=O)NC(C(C)C(=O)O)C(=O)NC(CC(=O)O)C(=O)NCC(=O)NC(CC(=O)O)C(=O)NCC(=O)NC(C(C)N)C(=O)NC(C(C)C)C(=O)N2CCCC2C(=O)NC1C (stereo not shown) [Compound 7, C11-Amphomycin]
4 to 8 µg/mL	CCCCCCCCCCCC(=O)NC(CC(=O)O)C(=O)NC1C(=O)N2CCCCC2C(=O)NC(C(C)C(=O)O)C(=O)NC(CC(=O)O)C(=O)NCC(=O)NC(CC(=O)O)C(=O)NCC(=O)NC(C(C)N)C(=O)NC(C(C)C)C(=O)N2CCCC2C(=O)NC1C (stereo not shown) [Compound 8, C12-Amphomycin]
0.5 to 1 µg/mL	CCCCCCCCCCCCC(=O)NC(CC(=O)O)C(=O)NC1C(=O)N2CCCCC2C(=O)NC(C(C)C(=O)O)C(=O)NC(CC(=O)O)C(=O)NCC(=O)NC(CC(=O)O)C(=O)NCC(=O)NC(C(C)N)C(=O)NC(C(C)C)C(=O)N2CCCC2C(=O)NC1C (stereo not shown) [Compound 9, C13-Amphomycin]
1 µg/mL	CCCCCCCCCCCCCC(=O)NC(CC(=O)O)C(=O)NC1C(=O)N2CCCCC2C(=O)NC(C(C)C(=O)O)C(=O)NC(CC(=O)O)C(=O)NCC(=O)NC(CC(=O)O)C(=O)NCC(=O)NC(C(C)N)C(=O)NC(C(C)C)C(=O)N2CCCC2C(=O)NC1C (stereo not shown) [Compound 10, C14-Amphomycin]
2 µg/mL	CCCCCCCCCCCCCCCCCC(=O)NC(CC(=O)O)C(=O)NC1C(=O)N2CCCCC2C(=O)NC(C(C)C(=O)O)C(=O)NC(CC(=O)O)C(=O)NCC(=O)NC(CC(=O)O)C(=O)NCC(=O)NC(C(C)N)C(=O)NC(C(C)C)C(=O)N2CCCC2C(=O)NC1C (stereo not shown) [Compound 13, C18-Amphomycin]
0.5 to 1 µg/mL	CCCCCCCCCCOc1ccc(C(=O)NC(CC(=O)O)C(=O)NC2C(=O)N3CCCCC3C(=O)NC(C(C)C(=O)O)C(=O)NC(CC(=O)O)C(=O)NCC(=O)NC(CC(=O)O)C(=O)NCC(=O)NC(C(C)N)C(=O)NC(C(C)C)C(=O)N3CCCC3C(=O)NC2C)cc1 (stereo not shown) [Compound 18, CH3—(CH2)9—O-p-Ph-C(═O)-Amphomycin]
0.5 µg/mL	CCCCCCCCOc1ccc(C(=O)NC(CC(=O)O)C(=O)NC2C(=O)N3CCCCC3C(=O)NC(C(C)C(=O)O)C(=O)NC(CC(=O)O)C(=O)NCC(=O)NC(CC(=O)O)C(=O)NCC(=O)NC(C(C)N)C(=O)NC(C(C)C)C(=O)N3CCCC3C(=O)NC2C)cc1 (stereo not shown) [Compound 19, CH3—(CH2)7—O-p-Ph-C(═O)-Amphomycin]
1 µg/mL	CCCCCCCCCCCC(=O)NNc1ccc(C(=O)NC(CC(=O)O)C(=O)NC2C(=O)N3CCCCC3C(=O)NC(C(C)C(=O)O)C(=O)NC(CC(=O)O)C(=O)NCC(=O)NC(CC(=O)O)C(=O)NCC(=O)NC(C(C)N)C(=O)NC(C(C)C)C(=O)N3CCCC3C(=O)NC2C)cc1 (stereo not drawn) [Compound 21, C12-p-Hydrazinobenzoic Acid-Amphomycin] (Lauroyl-[X12]D[ξAbu(βξ-NH2)][Pip][ξAsp(βξ-Me)]DGDG[ξAbu(3ξ-NH2)]VP; lactam 3-C; configuration not given here)
1 µg/mL	CCCCCCCCCCCCCCC(=O)NC(CC(=O)O)C(=O)NC1C(=O)N2CCCCC2C(=O)NC(C(C)C(=O)O)C(=O)NC(CC(=O)O)C(=O)NCC(=O)NC(CC(=O)O)C(=O)NCC(=O)NC(C(C)NC(=O)CCCCCN)C(=O)NC(C(C)C)C(=O)N2CCCC2C(=O)NC1C (stereo not shown) [Compound 25, C15-Amphomycin-9-Ahx]
4 µg/mL	CCCCCCCCCCCCCCC(=O)NC(CC(=O)O)C(=O)NC1C(=O)N2CCCCC2C(=O)NC(C(C)C(=O)O)C(=O)NC(CC(=O)O)C(=O)NCC(=O)NC(CC(=O)O)C(=O)NCC(=O)NC(C(C)NC(=O)C2CCNCC2)C(=O)NC(C(C)C)C(=O)N2CCCC2C(=O)NC1C (stereo not drawn) [Compound 26, C15-Amphomycin-9-Ina] (Pentadecanoyl-D[ξAbu(βξ-NH2)][Pip][ξAsp(βξ-Me)]DGDG[X7]VP; lactam 2-C; configuration not given here)
32 to 64 µg/mL	CCCCCCCCCCCCCCC(=O)NC(CC(=O)O)C(=O)NC1C(=O)N2CCCCC2C(=O)NC(C(C)C(=O)O)C(=O)NC(CC(=O)O)C(=O)NCC(=O)NC(CC(=O)O)C(=O)NCC(=O)NC(C(C)NC(=O)[C@@H](N)Cc2ccc([N+](=O)[O-])cc2)C(=O)NC(C(C)C)C(=O)N2CCCC2C(=O)NC1C (stereo partly shown) [Compound 27, C15-Amphomycin-9-(P—NO2-Phe)]
2 µg/mL	CCCCCCCCCCCCCCC(=O)NC(CC(=O)O)C(=O)NC1C(=O)N2CCCCC2C(=O)NC(C(C)C(=O)O)C(=O)NC(CC(=O)O)C(=O)NCC(=O)NC(CC(=O)O)C(=O)NCC(=O)NC(C(C)NC(=O)CNC(=O)[C@@H](N)Cc2ccccc2)C(=O)NC(C(C)C)C(=O)N2CCCC2C(=O)NC1C (stereo partly shown) [Compound 28, C15-Amphomycin-9-Gly-Phe]
1 µg/mL	CCCCCCCCCCCCCCC(=O)NC(CC(=O)O)C(=O)NC1C(=O)N2CCCCC2C(=O)NC(C(C)C(=O)O)C(=O)NC(CC(=O)O)C(=O)NCC(=O)NC(CC(=O)O)C(=O)NCC(=O)NC(C(C)NC(=O)[C@@H](N)CCC(=O)O)C(=O)NC(C(C)C)C(=O)N2CCCC2C(=O)NC1C (stereo partly shown) [Compound 29, C15-Amphomycin-9-Glu]
32 to 64 µg/mL	CCCCCCCCCCCCCCC(=O)NC(CC(=O)O)C(=O)NC1C(=O)N2CCCCC2C(=O)NC(C(C)C(=O)O)C(=O)NC(CC(=O)O)C(=O)NCC(=O)NC(CC(=O)O)C(=O)NCC(=O)NC(C(C)NC(=O)[C@@H](N)Cc2ccc(F)cc2)C(=O)NC(C(C)C)C(=O)N2CCCC2C(=O)NC1C (stereo partly shown) [Compound 30, C15-Amphomycin-9-(P—F-Phe)]
16 µg/mL	CCCCCCCCCCCCCCC(=O)NC(CC(=O)O)C(=O)NC1C(=O)N2CCCCC2C(=O)NC(C(C)C(=O)O)C(=O)NC(CC(=O)O)C(=O)NCC(=O)NC(CC(=O)O)C(=O)NCC(=O)NC(C(C)NC(=O)[C@@H](N)CC2CCCCC2)C(=O)NC(C(C)C)C(=O)N2CCCC2C(=O)NC1C (stereo partly drawn) [Compound 31, C15-Amphomycin-9-(β-Cha)]
8 µg/mL	CCCCCCCCCCCCCCC(=O)NC(CC(=O)O)C(=O)NC1C(=O)N2CCCCC2C(=O)NC(C(C)C(=O)O)C(=O)NC(CC(=O)O)C(=O)NCC(=O)NC(CC(=O)O)C(=O)NCC(=O)NC(C(C)NC(=O)[C@@H](N)CCc2ccccc2)C(=O)NC(C(C)C)C(=O)N2CCCC2C(=O)NC1C (stereo partly shown) [Compound 32, C15-Amphomycin-9-hPhe]
0.5 to 1 µg/mL	CCCCCCCCCCCCCCC(=O)NC(CC(=O)O)C(=O)NC1C(=O)N2CCCCC2C(=O)NC(C(C)C(=O)O)C(=O)NC(CC(=O)O)C(=O)NCC(=O)NC(CC(=O)O)C(=O)NCC(=O)NC(C(C)NC(=O)CNC(=O)CNC(=O)CN)C(=O)NC(C(C)C)C(=O)N2CCCC2C(=O)NC1C (stereo not drawn) [Compound 33, C15-Amphomycin-9-Gly-Gly-Gly]
32 to 64 µg/mL	CCCCCCCCCCCCCCC(=O)NC(CC(=O)O)C(=O)NC1C(=O)N2CCCCC2C(=O)NC(C(C)C(=O)O)C(=O)NC(CC(=O)O)C(=O)NCC(=O)NC(CC(=O)O)C(=O)NCC(=O)NC(C(C)NC(=O)CCCCCCCCCCN)C(=O)NC(C(C)C)C(=O)N2CCCC2C(=O)NC1C (stereo not shown) [Compound 34, C15-Amphomycin-9-C(═O)—(CH2)10—NH2]
8 to 16 µg/mL	CCCCCCCCCCCCCCC(=O)NC(CC(=O)O)C(=O)NC1C(=O)N2CCCCC2C(=O)NC(C(C)C(=O)O)C(=O)NC(CC(=O)O)C(=O)NCC(=O)NC(CC(=O)O)C(=O)NCC(=O)NC(C(C)NC(=O)[C@@H](N)CC#N)C(=O)NC(C(C)C)C(=O)N2CCCC2C(=O)NC1C (stereo partly drawn) [Compound 35, C15-Amphomycin-9-(β-Cyano-Ala)]
8 to 16 µg/mL	CCCCCCCCCCCCCCC(=O)NC(CC(=O)O)C(=O)NC1C(=O)N2CCCCC2C(=O)NC(C(C)C(=O)O)C(=O)NC(CC(=O)O)C(=O)NCC(=O)NC(CC(=O)O)C(=O)NCC(=O)NC(C(C)NC(=O)[C@@H](N)[C@@H](C)CC)C(=O)NC(C(C)C)C(=O)N2CCCC2C(=O)NC1C (stereo partly shown) [Compound 36, C15-Amphomycin-9-Ile]

Same assay, conditions: S. aureus (MSSA), CAMHB supplemented with 0.625 mM calcium, 24 hours at about 37° C.; a range = compound tested multiple times

MIC	Structure (SMILES)
23/8-16 μg/mL	CCCCCCCCCCCCCC(=O)NC(CC(=O)O)C(=O)NC1C(=O)N2CCCCC2C(=O)NC(C(C)C(=O)O)C(=O)NC(CC(=O)O)C(=O)NCC(=O)NC(CC(=O)O)C(=O)NCC(=O)NC(C(C)NC(=O)CN)C(=O)NC(C(C)C)C(=O)N2CCCC2C(=O)NC1C (stereo not shown) [Compound 23, C14-Amphomycin-9-Gly]

— patent US7868135B2, “Compositions of lipopeptide antibiotic derivatives and methods of use thereof” (priority 2003, dated 2011)
